# Data reported in PMC6150365, “Simultaneous Determination of Seven Components in Rat Plasma by the UPLC-MS/MS Method and Application of Pharmacokinetic Studies to SimiaoYong’an Decoction” (Molecules : A Journal of Synthetic Chemistry and Natural …, 2017).
# Assay: Pharmacokinetic study in rats after oral administration of SYD extract and its single and combined TCM extracts (UPLC-MS/MS of plasma)
# Details: for MRT last: MRT(0–t); for MRT inf: MRT(0–∞); for half-life: t1/2, rat plasma
# [1] = male, Sprague-Dawley, rat, plasma, po, 0.68 g/kg, rat plasma, oral GU extract 0.68 g/kg, n = 6
# [2] = male, Sprague-Dawley, rat, plasma, po, 2.14 g·kg^−1 (extract), rat plasma, oral LJ + GU extract, n = 6
# [3] = male, Sprague-Dawley, rat, plasma, po, 2.43 g/kg, rat plasma, oral AS + GU extract 2.43 g/kg, n = 6
# [4] = male, Sprague-Dawley, rat, plasma, po, 3.38 g/kg extract (6.67 g/kg as herbs), rat plasma, oral SN + GU extract, n = 6
# [5] = male, Sprague-Dawley, rat, plasma, po, 4.01 g·kg^−1 (extract), rat plasma, oral LJ + AS + GU extract, n = 6
# [6] = male, Sprague-Dawley, rat, plasma, po, 4.73 g/kg, rat plasma, oral LJ + SN + GU extract 4.73 g/kg, n = 6
# [7] = male, Sprague-Dawley, rat, plasma, po, 8.25 g/kg, rat plasma, oral SYD extract 8.25 g/kg, n = 6
# Protocol: Pieces of LJ, SN, AS and GU were weighed according to the proportion of 3:3:2:1 with appropriate amounts. The mixed pieces were crushed and decocted two times (60 min each time) with water (1:10 w/v) after being soaked for 60 min. The decoctions were then combined and condensed to the concentration of 0.5 g/mL, after which 95% ethanol was slowly added to the concentrate until a final ethanol concentration of 70% was reached. The SYD solution was set at room temperature overnight and then was filtered. The solvent was recovered, and the residue was dried under reduced pressure. A certain amount of the water extract of SYD was weighed and then dissolved with purified water for intragastric (oral) administration solution. The single herbs and different combination groups such as LJ, SN, AS, GU, LJ + SN, LJ + AS, LJ + GU, SN + AS, SN + GU, AS + GU, LJ + SN + AS, LJ + SN + GU, LJ + AS + GU and SN + AS + GU were prepared according to the procedure of SYD.
# Male Sprague-Dawley (SD) rats (body weight 250 ± 10 g) were supplied by the SPF (Beijing) Biotechnology Co., Ltd. (Certificate No.: SCXK 2016-0002, Beijing, China). The animals were maintained in controlled conditions (temperature 20–25 °C, relative humidity 55–60% and 12-h light/12-h dark cycle) with free access to standard laboratory food and water for seven days of acclimation and then fasted for 12 h before each experiment but allowed to drink freely during this time.
# Ninety male SD rats were randomly separated into 15 groups and administered a dosage of extract via gastric gavage once per day; detailed information about the oral daily dose of SYD extract and the corresponding single and combined TCMs (LJ, SN, AS, GU, LJ + SN, LJ + AS, LJ + GU, SN + AS, SN + GU, AS + GU, LJ + SN + AS, LJ + SN + GU, LJ + AS + GU, SN + AS + GU and SYD) is listed in Table 4.
# Each plasma sample (200 μL) with 50 μL IS solution added was spiked into 100 μL 1% formic acid distilled water solution and then vortexed for 1 min. Protein was precipitated by adding 600 μL of methanol to the mixture. After being vortexed and sonicated, the samples were centrifuged at 25,000 r/min, 4 °C for 10 min. The supernatant of each sample was transferred to a new 2-mL centrifuge tube and evaporated to dryness by N2 at 40 °C. Finally, the residue was dissolved in 100 μL methanol–water (1:1, v/v), followed by centrifugation at 30,000 r/min, 4 °C for 10 min, and 10-μL supernatant aliquots were injected into the UPLC-MS/MS system for analysis.
# The SYD was decomposed into 15 groups of compatibility combinations (LJ, SN, AS, GU, LJ + SN, LJ + AS, LJ + GU, SN + AS, SN + GU, AS + GU, LJ + SN + AS, LJ + SN + GU, LJ + AS + GU, SN + AS + GU and SYD). The 15 combinations were weighed according to the proportion of 3:3:2:1 with appropriate amounts and prepared by the method described in “Section 3.2”. Six male SD rats (body weight 250 ± 10 g) of each compatibility group were used in the pharmacokinetic study. After 12-h fast, rats of the different groups were orally administered the respective extract dissolved in saline (Table 4). Venous blood (0.45 mL) was obtained from the orbit vein and collected in heparin-pretreated polypropylene centrifuge tubes at 0.083 h, 0.17 h, 0.25 h, 0.50 h, 0.75 h, 1.0 h, 1.5 h, 2.0 h, 3.0 h, 4.0 h, 6.0 h, 8.0, 12 h and 24 h post-dose. The plasma was separated by centrifugation at 8000 r/min for 10 min and then stored at −20 °C until analysis. The amount of each analyte in the plasma was estimated by UPLC-MS/MS analysis as described in Section 3.5.
# Non-compartmental methods using Phoenix WinNonlin 7.0 software provided by the Beijing University of Chinese Medicine were used to analyze plasma concentration versus time profiles and to estimate the following pharmacokinetic parameters: terminal elimination half-lives (t1/2), area under the plasma concentration versus time curve from zero to last sampling time (AUC), and the mean residence time (MRT).
smiles,measurement,setting,value
"O=C1C[C@@H](c2ccc(O[C@@H]3O[C@H](CO)[C@@H](O)[C@H](O)[C@H]3O)cc2)Oc2cc(O)ccc21 [Liquiritin, liquiritin]",AUC(0-t),[1],190 ng·h/mL
same,AUC(0-inf),"male, Sprague-Dawley, rat, plasma, po, 0.68 g/kg, AUC(0–∞), rat plasma, oral GU extract 0.68 g/kg, n = 6",190 ng·h/mL
same,Cmax,"male, Sprague-Dawley, rat, plasma, po, 0.68 g/kg, Cmax, rat plasma, oral GU extract 0.68 g/kg, n = 6",270 ng/mL
same,MRT last,[1],1.16 ± 0.01 h
same,MRT inf,[1],1.19 ± 0.01 h
same,Tmax,"male, Sprague-Dawley, rat, plasma, po, 0.68 g/kg, Tmax, rat plasma, oral GU extract 0.68 g/kg, n = 6",0.08 h
same,half-life,"male, Sprague-Dawley, rat, plasma, po, 0.68 g/kg, oral GU extract 0.68 g/kg, n = 6",4.41 ± 0.59 h
same,AUC(0-inf),"male, Sprague-Dawley, rat, plasma, po, 2.14 g·kg^−1 (extract), AUC(0–∞), rat plasma, oral LJ + GU extract, n = 6",200 ± 60 ng·h/mL
same,MRT last,[2],2.53 ± 0.56 h
same,MRT inf,[2],13.5 ± 11 h
same,Tmax,"male, Sprague-Dawley, rat, plasma, po, 2.14 g·kg^−1 (extract), Tmax, rat plasma, oral LJ + GU extract, n = 6",0.56 ± 0.56 h
same,half-life,"male, Sprague-Dawley, rat, plasma, po, 2.14 g·kg^−1 (extract), oral LJ + GU extract, n = 6",12.2 ± 7.3 h
same,AUC(0-t),"male, Sprague-Dawley, rat, plasma, po, 2.14 g·kg^−1 extract, rat plasma, oral LJ + GU extract, n = 6",180 ± 60 ng·h/mL
same,AUC(0-t),[3],220 ± 80 ng·h/mL
same,AUC(0-inf),"male, Sprague-Dawley, rat, plasma, po, 2.43 g/kg, AUC(0–∞), rat plasma, oral AS + GU extract 2.43 g/kg, n = 6",240 ± 80 ng·h/mL
same,MRT last,[3],2.3 ± 0.63 h
same,MRT inf,[3],11.1 ± 8.58 h
same,Tmax,"male, Sprague-Dawley, rat, plasma, po, 2.43 g/kg, Tmax, rat plasma, oral AS + GU extract 2.43 g/kg, n = 6",0.6 ± 0.5 h
same,half-life,"male, Sprague-Dawley, rat, plasma, po, 2.43 g/kg, oral AS + GU extract 2.43 g/kg, n = 6",9.28 ± 5.92 h
same,MRT last,[4],2.48 ± 0.46 h
same,MRT inf,[4],12.4 ± 9.87 h
same,Tmax,"male, Sprague-Dawley, rat, plasma, po, 3.38 g/kg extract (6.67 g/kg as herbs), Tmax, rat plasma, oral SN + GU extract, n = 6",0.42 ± 0.53 h
same,half-life,"male, Sprague-Dawley, rat, plasma, po, 3.38 g/kg extract (6.67 g/kg as herbs), oral SN + GU extract, n = 6",7.81 ± 5.31 h
same,AUC(0-t),"male, Sprague-Dawley, rat, plasma, po, 3.38 g·kg^−1 (extract), rat plasma, oral SN + GU extract, n = 6",180 ± 50 ng·h/mL
same,AUC(0-inf),"male, Sprague-Dawley, rat, plasma, po, 3.38 g·kg^−1 (extract), AUC(0–∞), rat plasma, oral SN + GU extract, n = 6",210 ± 50 ng·h/mL
same,Cmax,"male, Sprague-Dawley, rat, plasma, po, 3.38 g·kg^−1 extract, Cmax, rat plasma, oral SN + GU extract, n = 6",150 ± 70 ng/mL
same,AUC(0-t),[5],220 ± 130 ng·h/mL
same,AUC(0-inf),"male, Sprague-Dawley, rat, plasma, po, 4.01 g·kg^−1 (extract), AUC(0–∞), rat plasma, oral LJ + AS + GU extract, n = 6",260 ± 140 ng·h/mL
same,Cmax,"male, Sprague-Dawley, rat, plasma, po, 4.01 g·kg^−1 (extract), Cmax, rat plasma, oral LJ + AS + GU extract, n = 6",210 ± 170 ng/mL
same,MRT last,[5],2.41 ± 0.63 h
same,MRT inf,[5],16 ± 11.8 h
same,Tmax,"male, Sprague-Dawley, rat, plasma, po, 4.01 g·kg^−1 (extract), Tmax, rat plasma, oral LJ + AS + GU extract, n = 6",0.79 ± 0.29 h
same,half-life,"male, Sprague-Dawley, rat, plasma, po, 4.01 g·kg^−1 (extract), oral LJ + AS + GU extract, n = 6",13.7 ± 4.69 h
same,AUC(0-t),[6],230 ± 160 ng·h/mL
same,AUC(0-inf),"male, Sprague-Dawley, rat, plasma, po, 4.73 g/kg, AUC(0–∞), rat plasma, oral LJ + SN + GU extract 4.73 g/kg, n = 6",260 ± 170 ng·h/mL
same,MRT last,[6],2.5 ± 0.67 h
same,MRT inf,[6],16.3 ± 12.9 h
same,Tmax,"male, Sprague-Dawley, rat, plasma, po, 4.73 g/kg, Tmax, rat plasma, oral LJ + SN + GU extract 4.73 g/kg, n = 6",0.88 ± 0.31 h
same,half-life,"male, Sprague-Dawley, rat, plasma, po, 4.73 g/kg, oral LJ + SN + GU extract 4.73 g/kg, n = 6",13.4 ± 5.15 h
same,AUC(0-inf),"male, Sprague-Dawley, rat, plasma, po, 8.25 g/kg",340 ± 210 ng·h/mL
same,AUC(0-t),[7],290 ± 210 ng·h/mL
same,Cmax,"male, Sprague-Dawley, rat, plasma, po, 8.25 g/kg, Cmax, rat plasma, oral SYD extract 8.25 g/kg, n = 6",210 ± 170 ng/mL
same,MRT last,[7],2.89 ± 0.92 h
same,MRT inf,[7],11.3 ± 7.16 h
same,Tmax,"male, Sprague-Dawley, rat, plasma, po, 8.25 g/kg, Tmax, rat plasma, oral SYD extract 8.25 g/kg, n = 6",0.88 ± 0.31 h
same,half-life,"male, Sprague-Dawley, rat, plasma, po, 8.25 g/kg, oral SYD extract 8.25 g/kg, n = 6",13.4 ± 5.59 h
same,half-life,"male, Sprague-Dawley, rat, plasma, po, […], oral SN + AS + GU extract […], n = 6",11.6 ± 5.01 h
same,Cmax,"rat plasma, oral AS + GU extract 2.43 g/kg, n = 6",200 ± 130 ng/mL
same,Cmax,"rat plasma, oral LJ + GU extract, n = 6",140 ± 70 ng/mL
same,Tmax,"rat plasma, oral SN + AS + GU extract […], n = 6",1.00 ± 0.27 h
